Measured values taken from patent US20200239530A1, “COMPOUNDS AND METHODS OF MODULATING PROTEIN DEGRADATION” (Vividion Therapeutics, Inc., priority 2017, published 2020).
One block for each molecule: values may come before it.

Assays:
Assay in all cases: Cysteine liganding, probe competition
Type in all cases: binding
UniProt O15344 = target: T1, UniProt O15344 (Homo sapiens, UniProt O15344); conditions: 500 uM
T1 construct: Cells were resuspended in cold PBS on ice and sonicated with a probe sonicator to achieve lysis; endogenous in cells
Source text: (§1) The following 96-well sample prep protocol was used for sample preparation.

UniProt Q13114 = target: T2, UniProt Q13114 (Homo sapiens, UniProt Q13114); conditions: read-out: percent_inhibition
T2 construct: 200 μL of lysate containing 5 mg/ml proteome was treated with 2 μL of 100× compound stock; endogenous in cells
Source text: as §1

UniProt Q15366 = target: T3, UniProt Q15366 (Homo sapiens, UniProt Q15366); conditions: read-out: KB02_500 uM_percent_inhibition
T3 construct: Cells were resuspended in cold PBS on ice and sonicated with a probe sonicator to achieve lysis; endogenous in cells
Source text: as §1

UniProt Q9BYV6 = target: T4, UniProt Q9BYV6 (Homo sapiens, UniProt Q9BYV6); conditions: read-out: KB02_500 uM_percent_inhibition
T4 construct: 200 μL of lysate containing 5 mg/ml proteome was treated with 2 μL of 100× compound stock; endogenous in cells
Source text: as §1

UniProt Q96PU5 = target: T5, UniProt Q96PU5 (Homo sapiens, UniProt Q96PU5)
T5 construct: Cells were resuspended in cold PBS on ice and sonicated with a probe sonicator to achieve lysis; endogenous in cells
T5 sequence (Q96PU5 whole entry, change not shown): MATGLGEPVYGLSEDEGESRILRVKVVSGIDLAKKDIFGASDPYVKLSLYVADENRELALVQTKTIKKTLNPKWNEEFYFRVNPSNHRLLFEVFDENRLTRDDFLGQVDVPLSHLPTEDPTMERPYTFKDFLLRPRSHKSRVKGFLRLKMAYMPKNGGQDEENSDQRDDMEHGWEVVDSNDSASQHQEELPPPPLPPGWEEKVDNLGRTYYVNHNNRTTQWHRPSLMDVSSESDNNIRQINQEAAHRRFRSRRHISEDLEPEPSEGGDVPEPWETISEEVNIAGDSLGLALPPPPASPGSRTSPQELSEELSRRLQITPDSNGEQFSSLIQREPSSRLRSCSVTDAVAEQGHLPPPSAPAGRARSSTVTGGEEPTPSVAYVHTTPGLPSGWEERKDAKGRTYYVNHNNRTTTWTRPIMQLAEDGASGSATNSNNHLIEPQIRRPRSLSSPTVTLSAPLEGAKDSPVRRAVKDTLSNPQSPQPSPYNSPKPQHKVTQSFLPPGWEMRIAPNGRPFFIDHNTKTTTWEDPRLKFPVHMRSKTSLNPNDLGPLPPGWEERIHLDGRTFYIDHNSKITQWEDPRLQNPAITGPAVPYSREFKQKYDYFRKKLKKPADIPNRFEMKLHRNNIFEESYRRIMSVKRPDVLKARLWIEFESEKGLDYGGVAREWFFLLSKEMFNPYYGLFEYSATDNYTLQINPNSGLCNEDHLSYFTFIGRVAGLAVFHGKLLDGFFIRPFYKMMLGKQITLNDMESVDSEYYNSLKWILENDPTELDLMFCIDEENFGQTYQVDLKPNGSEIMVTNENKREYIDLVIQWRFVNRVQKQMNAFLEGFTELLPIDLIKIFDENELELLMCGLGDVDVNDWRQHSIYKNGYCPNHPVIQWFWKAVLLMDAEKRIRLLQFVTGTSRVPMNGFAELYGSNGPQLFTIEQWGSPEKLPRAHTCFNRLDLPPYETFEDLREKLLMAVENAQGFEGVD
Source text: as §1

UniProt P0DH78 = target: T6, UniProt P0DH78 (Homo sapiens, UniProt P0DH78); conditions: read-out: percent_inhibition
T6 construct: 200 μL of lysate containing 5 mg/ml proteome was treated with 2 μL of 100× compound stock; endogenous in cells
T6 sequence (P0DH78 whole entry, change not shown): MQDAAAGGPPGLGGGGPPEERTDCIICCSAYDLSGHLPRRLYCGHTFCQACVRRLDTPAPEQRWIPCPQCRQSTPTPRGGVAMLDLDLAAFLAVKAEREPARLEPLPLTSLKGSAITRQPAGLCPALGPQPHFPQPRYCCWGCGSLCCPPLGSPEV
Source text: as §1

UniProt Q9C037 = target: T7, UniProt Q9C037 (Homo sapiens, UniProt Q9C037); conditions: read-out: KB05_100 uM_percent_inhibition
T7 construct: 200 μL of lysate containing 5 mg/ml proteome was treated with 2 μL of 100× compound stock; endogenous in cells
Source text: as §1

UniProt O60291 = target: T8, UniProt O60291 (Homo sapiens, UniProt O60291)
T8 construct: Cells were resuspended in cold PBS on ice and sonicated with a probe sonicator to achieve lysis; endogenous in cells
T8 sequence (O60291 whole entry, change not shown): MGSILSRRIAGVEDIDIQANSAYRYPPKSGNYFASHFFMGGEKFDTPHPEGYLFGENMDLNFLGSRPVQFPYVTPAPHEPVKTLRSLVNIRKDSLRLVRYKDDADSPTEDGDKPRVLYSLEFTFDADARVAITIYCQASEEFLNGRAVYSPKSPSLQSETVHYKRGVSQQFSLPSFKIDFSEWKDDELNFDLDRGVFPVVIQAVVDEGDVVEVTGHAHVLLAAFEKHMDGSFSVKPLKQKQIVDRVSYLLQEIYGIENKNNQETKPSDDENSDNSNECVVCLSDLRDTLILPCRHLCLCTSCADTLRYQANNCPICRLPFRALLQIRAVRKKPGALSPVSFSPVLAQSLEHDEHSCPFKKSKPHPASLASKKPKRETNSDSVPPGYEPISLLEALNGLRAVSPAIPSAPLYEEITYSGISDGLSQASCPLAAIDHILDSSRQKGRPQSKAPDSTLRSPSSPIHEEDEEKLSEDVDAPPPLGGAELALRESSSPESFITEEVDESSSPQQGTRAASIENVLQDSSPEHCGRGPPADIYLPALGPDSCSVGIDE
Source text: as §1

UniProt Q8IUQ4 = target: T9, UniProt Q8IUQ4 (Homo sapiens, UniProt Q8IUQ4)
T9 construct: 200 μL of lysate containing 5 mg/ml proteome was treated with 2 μL of 100× compound stock; endogenous in cells
T9 sequence (Q8IUQ4 whole entry, change not shown): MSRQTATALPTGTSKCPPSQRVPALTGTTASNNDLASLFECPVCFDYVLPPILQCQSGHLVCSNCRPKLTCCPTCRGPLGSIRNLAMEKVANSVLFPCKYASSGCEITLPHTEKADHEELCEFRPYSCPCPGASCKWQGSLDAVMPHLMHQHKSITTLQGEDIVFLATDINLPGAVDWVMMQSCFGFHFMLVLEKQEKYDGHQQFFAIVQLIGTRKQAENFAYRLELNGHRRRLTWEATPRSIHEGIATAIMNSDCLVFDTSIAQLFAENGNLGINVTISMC
Source text: as §1

UniProt P19474 = target: T10, UniProt P19474 (Homo sapiens, UniProt P19474); conditions: read-out: KB05_100 uM_percent_inhibition
T10 construct: 200 μL of lysate containing 5 mg/ml proteome was treated with 2 μL of 100× compound stock; endogenous in cells
T10 sequence (P19474 whole entry, change not shown): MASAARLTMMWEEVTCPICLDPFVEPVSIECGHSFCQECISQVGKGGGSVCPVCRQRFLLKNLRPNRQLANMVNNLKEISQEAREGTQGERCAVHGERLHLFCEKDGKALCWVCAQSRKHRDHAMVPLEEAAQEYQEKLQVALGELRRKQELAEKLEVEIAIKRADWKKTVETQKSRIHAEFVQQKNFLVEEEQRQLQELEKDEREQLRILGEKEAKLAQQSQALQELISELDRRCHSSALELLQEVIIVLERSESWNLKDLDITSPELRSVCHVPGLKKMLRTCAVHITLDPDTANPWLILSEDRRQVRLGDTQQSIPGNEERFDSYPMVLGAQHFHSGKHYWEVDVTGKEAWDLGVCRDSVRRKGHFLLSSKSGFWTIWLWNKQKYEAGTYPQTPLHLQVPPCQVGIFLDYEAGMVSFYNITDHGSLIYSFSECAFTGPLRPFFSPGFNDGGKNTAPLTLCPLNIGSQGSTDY
Source text: as §1

UniProt Q9NS56 = target: T11, UniProt Q9NS56 (Homo sapiens, UniProt Q9NS56)
T11 construct: 200 μL of lysate containing 5 mg/ml proteome was treated with 2 μL of 100× compound stock; endogenous in cells
T11 sequence (Q9NS56 whole entry, change not shown): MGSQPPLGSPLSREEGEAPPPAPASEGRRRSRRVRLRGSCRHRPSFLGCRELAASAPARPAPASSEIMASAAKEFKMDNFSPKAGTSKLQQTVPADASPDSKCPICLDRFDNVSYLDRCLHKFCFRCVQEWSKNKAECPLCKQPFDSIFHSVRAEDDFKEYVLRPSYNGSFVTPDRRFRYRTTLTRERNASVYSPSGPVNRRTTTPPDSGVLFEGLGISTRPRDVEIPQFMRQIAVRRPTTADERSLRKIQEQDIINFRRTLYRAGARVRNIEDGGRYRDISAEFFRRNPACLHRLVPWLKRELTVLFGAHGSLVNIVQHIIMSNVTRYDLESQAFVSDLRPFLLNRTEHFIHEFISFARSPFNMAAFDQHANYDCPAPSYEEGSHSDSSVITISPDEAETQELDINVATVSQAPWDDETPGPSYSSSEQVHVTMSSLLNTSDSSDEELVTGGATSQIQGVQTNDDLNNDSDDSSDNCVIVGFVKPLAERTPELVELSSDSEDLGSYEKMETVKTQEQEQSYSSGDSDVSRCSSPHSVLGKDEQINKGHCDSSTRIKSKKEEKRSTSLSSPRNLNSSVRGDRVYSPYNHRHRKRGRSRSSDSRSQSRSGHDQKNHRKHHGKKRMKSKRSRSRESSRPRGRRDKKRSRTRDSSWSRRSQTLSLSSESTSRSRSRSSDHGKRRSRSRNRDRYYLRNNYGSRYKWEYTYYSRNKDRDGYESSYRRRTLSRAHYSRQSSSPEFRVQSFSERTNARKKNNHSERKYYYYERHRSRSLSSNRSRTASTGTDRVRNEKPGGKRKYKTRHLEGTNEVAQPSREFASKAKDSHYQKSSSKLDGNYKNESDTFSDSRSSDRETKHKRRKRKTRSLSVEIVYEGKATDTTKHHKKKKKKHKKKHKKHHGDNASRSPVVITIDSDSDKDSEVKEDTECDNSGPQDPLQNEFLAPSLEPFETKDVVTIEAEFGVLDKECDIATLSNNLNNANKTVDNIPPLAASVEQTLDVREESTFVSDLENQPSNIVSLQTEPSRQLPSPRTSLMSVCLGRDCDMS
Source text: as §1

UniProt Q13309 = target: T12, UniProt Q13309 (Homo sapiens, UniProt Q13309); conditions: read-out: percent_inhibition
T12 construct: 200 μL of lysate containing 5 mg/ml proteome was treated with 2 μL of 100× compound stock; endogenous in cells
T12 sequence (Q13309 whole entry, change not shown): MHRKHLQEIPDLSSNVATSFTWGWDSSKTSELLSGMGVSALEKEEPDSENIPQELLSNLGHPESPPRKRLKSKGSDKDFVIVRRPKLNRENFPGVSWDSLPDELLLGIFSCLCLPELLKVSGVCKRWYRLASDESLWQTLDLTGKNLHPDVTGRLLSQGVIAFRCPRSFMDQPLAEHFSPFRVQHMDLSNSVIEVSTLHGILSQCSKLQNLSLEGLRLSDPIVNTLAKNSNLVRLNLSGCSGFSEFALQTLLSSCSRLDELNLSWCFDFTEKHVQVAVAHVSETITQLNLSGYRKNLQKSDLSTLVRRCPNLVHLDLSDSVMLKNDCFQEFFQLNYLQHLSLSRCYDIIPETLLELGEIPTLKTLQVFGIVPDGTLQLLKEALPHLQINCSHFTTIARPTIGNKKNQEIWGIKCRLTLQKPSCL
Source text: as §1

UniProt Q86YT6 = target: T13, UniProt Q86YT6 (Homo sapiens, UniProt Q86YT6); conditions: read-out: percent inhibition
T13 construct: Cells were resuspended in cold PBS on ice and sonicated with a probe sonicator to achieve lysis; endogenous in cells
Source text: as §1

UniProt Q149N8 = target: T14, UniProt Q149N8 (Homo sapiens, UniProt Q149N8); conditions: read-out: percent_inhibition
T14 construct: 200 μL of lysate containing 5 mg/ml proteome was treated with 2 μL of 100× compound stock; endogenous in cells
Source text: as §1

UniProt Q9HAT8 = target: T15, UniProt Q9HAT8 (Homo sapiens, UniProt Q9HAT8)
T15 construct: 200 μL of lysate containing 5 mg/ml proteome was treated with 2 μL of 100× compound stock; endogenous in cells
T15 sequence (Q9HAT8 whole entry, change not shown): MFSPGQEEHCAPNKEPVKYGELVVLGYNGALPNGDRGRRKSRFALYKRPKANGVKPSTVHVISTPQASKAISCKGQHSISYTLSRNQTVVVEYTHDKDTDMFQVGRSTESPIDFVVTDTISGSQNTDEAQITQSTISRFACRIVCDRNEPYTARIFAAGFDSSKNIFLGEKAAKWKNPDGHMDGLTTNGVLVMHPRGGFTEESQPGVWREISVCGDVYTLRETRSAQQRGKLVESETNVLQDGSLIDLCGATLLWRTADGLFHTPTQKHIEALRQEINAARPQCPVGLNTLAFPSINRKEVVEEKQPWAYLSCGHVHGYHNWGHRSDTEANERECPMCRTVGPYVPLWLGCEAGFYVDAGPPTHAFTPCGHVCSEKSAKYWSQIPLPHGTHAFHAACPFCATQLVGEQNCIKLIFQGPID
Source text: as §1

UniProt Q99942 = target: T16, UniProt Q99942 (Homo sapiens, UniProt Q99942)
T16 construct: 200 μL of lysate containing 5 mg/ml proteome was treated with 2 μL of 100× compound stock; endogenous in cells
T16 sequence (Q99942 whole entry, change not shown): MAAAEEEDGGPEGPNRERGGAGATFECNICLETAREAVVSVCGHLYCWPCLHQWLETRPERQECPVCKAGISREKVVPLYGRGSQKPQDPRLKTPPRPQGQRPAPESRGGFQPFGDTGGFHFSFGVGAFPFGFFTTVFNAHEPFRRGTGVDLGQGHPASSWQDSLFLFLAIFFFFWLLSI
Source text: as §1

UniProt Q8NG27 = target: T17, UniProt Q8NG27 (Homo sapiens, UniProt Q8NG27); conditions: 100 uM
T17 construct: 200 μL of lysate containing 5 mg/ml proteome was treated with 2 μL of 100× compound stock; endogenous in cells
Source text: as §1

UniProt Q86XN8 = target: T18, UniProt Q86XN8 (Homo sapiens, UniProt Q86XN8); conditions: 100 uM
T18 construct: Cells were resuspended in cold PBS on ice and sonicated with a probe sonicator to achieve lysis; endogenous in cells
Source text: as §1

UniProt Q9C019 = target: T19, UniProt Q9C019 (Homo sapiens, UniProt Q9C019); conditions: 100 uM
T19 construct: 200 μL of lysate containing 5 mg/ml proteome was treated with 2 μL of 100× compound stock; endogenous in cells
Source text: as §1

UniProt Q9BUZ4 = target: T20, UniProt Q9BUZ4 (Homo sapiens, UniProt Q9BUZ4); conditions: 100 uM
T20 construct: 200 μL of lysate containing 5 mg/ml proteome was treated with 2 μL of 100× compound stock; endogenous in cells
T20 sequence (Q9BUZ4 whole entry, change not shown): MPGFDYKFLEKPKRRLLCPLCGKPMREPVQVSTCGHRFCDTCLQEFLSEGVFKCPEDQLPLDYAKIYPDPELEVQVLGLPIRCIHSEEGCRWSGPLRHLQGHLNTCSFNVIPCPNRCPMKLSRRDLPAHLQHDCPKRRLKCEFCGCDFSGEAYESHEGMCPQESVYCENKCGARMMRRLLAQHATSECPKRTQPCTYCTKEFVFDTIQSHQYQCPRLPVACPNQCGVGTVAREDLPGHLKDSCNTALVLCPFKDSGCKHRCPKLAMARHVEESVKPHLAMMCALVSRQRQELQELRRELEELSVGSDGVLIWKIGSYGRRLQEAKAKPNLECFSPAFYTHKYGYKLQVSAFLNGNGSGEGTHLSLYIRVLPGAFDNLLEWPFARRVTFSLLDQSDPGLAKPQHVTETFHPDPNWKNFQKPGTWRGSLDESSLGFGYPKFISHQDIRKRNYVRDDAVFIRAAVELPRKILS
Source text: as §1

SMILES: COc1ccc2c(c1)CCCN2C(=O)CCl [KB02]
percent inhibition (UniProt O15344): 24% | inhibition at 100 µM (UniProt Q13114): 33% | inhibition at 500 µM (UniProt Q15366): 45% | inhibition at 500 µM (UniProt Q9BYV6): 1% | percent inhibition (UniProt Q96PU5; 100 uM): 33% | inhibition at 100 µM (UniProt Q96PU5; read-out: percent inhibition): 30% | inhibition at 100 µM (UniProt P0DH78; 100 uM): 17% | inhibition at 500 µM (UniProt P0DH78; 500 uM): 67%

inhibition at 100 µM (UniProt Q9C037): 11% | percent inhibition (UniProt O60291; 100 uM): 20% | inhibition at 100 µM (UniProt O60291; read-out: percent inhibition): 13% | percent_inhibition (UniProt Q8IUQ4; 100 uM): 17% | inhibition at 100 µM (UniProt Q8IUQ4; read-out: percent_inhibition): 9% | inhibition at 100 µM (UniProt P19474): 39% | percent_inhibition (UniProt Q9NS56; 100 uM): 11% | inhibition at 100 µM (UniProt Q9NS56; read-out: percent_inhibition): 13% | inhibition at 100 µM (UniProt Q13309): 10% | inhibition at 100 µM (UniProt Q86YT6): 31% | inhibition at 100 µM (UniProt Q149N8): 41% | inhibition at 100 µM (UniProt Q9HAT8; 100 uM, read-out: KB05_100 uM_percent_inhibition): 15% | inhibition at 500 µM (UniProt Q9HAT8; 500 uM, read-out: KB05_500 uM_percent_inhibition): 63% | percent_inhibition (UniProt Q99942; 100 uM): 15% | inhibition at 100 µM (UniProt Q99942; read-out: percent_inhibition): 14%
SMILES: C=CC(=O)N(c1ccccc1)c1ccc(Br)cc1 [KB05]

SMILES: O=C(CCl)Nc1cc(C(F)(F)F)cc(C(F)(F)F)c1 [KBO3]
KB03_100 uM_percent_inhibition (UniProt Q8NG27): 16% | percent inhibition (UniProt Q86XN8): 48% | KB03_100 uM_percent_inhibition (UniProt Q9C019): 18% | percent_inhibition (UniProt Q9BUZ4): 30%
